The record followed here is US12491246B2, “Combination therapy of arms and natural killer cells” (KLEO PHARMACEUTICALS, INC., priority 2018, dated 2025).

pEC50: −log10 of the molar value. Several values for one entry are separate records, joined by “and”; a condition that tells them apart may be missing. Equal values may be shown once.

The subject of data set [1] is LNCaP target cells and reporter cells with CD16a-158V/V variant. The experiment in a line: ADCC reporter assay. The class given is cell-based, human. As to the method: In one example, LNCaP cells (human prostate cancer derived, ATCC: CRL-1740) were detached and re-suspended in 1% BSA in RPMI. Cell solution was filtered to remove cell aggregate (polystyrene tube with cell strainer, Corning: 352235) before being counted (Life Technologies Countless II cell counter) and plated (10,000 cells in 25 μL/well; Corning plates: 3917). The plated was centrifuged (5 min, 300×g) and the compound solutions (25 μL/well) were added immediately after. The antibody solutions (25 μL/well, IgG1 FC-Thermo Fisher: 10702HNAH5; Dintrophenyl-KLH polyclonal antibody-Thermo Fisher: A-6430) were added following a 45 min incubation at 37° C. The plate was then incubated with the antibody solution for 45 min to allow for cell-ARM-antibody ternary complex formation before the addition of the effector cells (60 K in 25 μL/well, ADCC reporter cells—Promega kit: G7018). The plate was centrifuged (5 min, 300×g) and effector cells were incubated for an 5 h at 37° C. Following the induction period the plate was equilibrated to 25° C. followed the addition of the luciferase substrate (75 μL/well, 1 vial in 10 mL of Bio-Glo assay buffer, Promega kit: G7018). The plate was then centrifuged (5 min, 300×g) and the luminescence was measured (Biotek Synergy H1 microplate reader).
An example set of data are present below:
LNCaP target cells and reporter cells with CD16a-158V/V variant
A general note: A reporter such as luciferase makes a cellular process visible.

Another data set has as its system LNCap cells. The experiment in a line: Ternary complex formation of ARM, antibody and target cells (flow cytometry). The class given is cell-based, human. The following applies: 20 ug/ml rabbit anti-DNP Alexa 488, 4 C 30 min, mean fluorescence. As for the experimental part:
Various technologies are suitable for assessing complex formation. One example such assay was described below. Those skilled in the art appreciate that one or more parameters and/or conditions may be adjusted and other assays/reagents/conditions, etc., can also be utilized.
Adherent cells (LNCap, CRL-1740, for example results below) were harvested using Accumax (Sigma-Aldrich A7089-100 ml). Compounds were diluted in DMSO (MP 191418) to 1000× the starting concentration used in the assay into a 96 well polypropylene plate (Corning 3357). They were then serially diluted in ½ log increments to generate 8-12 concentrations in DMSO (assay dependent). These DMSO stocks were then step diluted 1/10 into PBS (VWR Cat. #20012043). The step diluted compound range was then added into the polypropylene assay plate 1/100 the volume of the assay volume. The cells used for the assay were counted and centrifuged and resuspended at a concentration of 100,000 cells per 200 ul in Flow buffer: 1% BSA (American Bio AB01088-00100); 0.5 mM EDTA (VWR 45001-122); PBS (VWR Cat. #20012043) with 20 ug/ml rabbit anti-DNP Alexa 488 (Thermo Fisher Scientific A11097). The cells were then added into the polypropylene plate with the step diluted compounds and incubated at 4 C 30 min. At the end of the incubation, the cells were centrifuged and washed 2× with Flow buffer containing 0.5% Tween 20 (BP337-500). Samples were analyzed on a BD FacsCelesta. Mean fluorescence was analyzed using Graphpad Prism and curves were fit using log (inhibitor) vs. response-Variable slope (four parameters).
Background: In flow cytometry, cells or beads pass a laser one at a time.

The next data set has as its system CIML NK cells. The data set is described as follows: CIML NK cell fratricide assay. The class given is cell-based. To be noted: CIML NK cells; 3 μg/ml or 20.1 nM; 2 hours post-incubation. As for the experimental part: (§1) PBMC isolation: Leukopheresis product from a donor with body mass index (BMI) between 19-25, under 50 years old, not on immuno-suppressive drugs for at least 2 weeks with an estimated PBMC cell count of >10^10 was obtained from Key Biologics (subject ID 20982200) and transported at ambient temperature. Leukopheresis bag was wiped down with 70% EtOH, a small slit was made and contents were pipetted off into tubes. Leukopak contents were diluted 1:1 with PBS without Ca++/Mg++ and 20 ml of this mixture was layered on top of 25 mL of Ficoll. Tubes were then centrifuged at 400 g for 30 minutes without brakes. PBMCs were harvested from the interface into separate tubes, and tubes were filled to 50 mL with PBS. Cells were centrifuged for 10 min at 120 g to get rid of platelets. Supernatant was poured off and cells were re-suspended in RPMI 10% FBS at a concentration of 7-10×10^6 cells/ml. Cells were cultured overnight at 37C in a 5% CO2 atmosphere until NK cell isolation.
NK cell isolation: PBMC were centrifuged at 400 g for 10 min and re-suspended in EasySep buffer. NK cells were isolated using NK cell isolation kits from STEMCELL Technologies according to kit's manufacturers' instructions. NK cell purity and phenotype was assessed by trypan Blue and flow cytometry using the following antibody cocktail: anti-CD56PE, CD3 APC, and viability was determined using staining with Trypan Blue exclusion dye, and by flow cytometry using Near Infra-Red Fixable viability dye (Thermo Fisher).
CIML NK cell generation: Isolated NK cells were re-suspended at 2×10^6 cells/ml in XVIVO 10% Human Serum and the following concentrations IL-15 (50 ng/ml), IL-12 (10 ng/ml), IL-18(50 ng/ml) for 12 to 18 hrs. […]
(§2) NK cell fratricide (death directed at NK cells in the same culture) was assessed by flow cytometry following a 2 hr incubation with the CD38 ARM at indicated concentrations in the presence or absence of 500 μg/ml intravenous immune globulin (IVIG). […]

In another data set the test system is non-CIML NK cells. The experiment in a line: NK cell fratricide assay, non-CIML control NK cells. The class given is cell-based. The following applies: daratumumab treatment, 2 hr. As to the method: as §1
NK cell isolation: PBMC were centrifuged at 400 g for 10 min and re-suspended in EasySep buffer. NK cells were isolated using NK cell isolation kits from STEMCELL Technologies according to kit's manufacturers' instructions. NK cell purity and phenotype was assessed by trypan Blue and flow cytometry using the following antibody cocktail: anti-CD56PE, CD3 APC, and viability was determined using staining with Trypan Blue exclusion dye, and by flow cytometry using Near Infra-Red Fixable viability dye (Thermo Fisher). […]
Purity and viability of NK cells and CIML NK cells: Among other things, the present disclosure provides highly pure and viable NK cell populations following isolation from PBMC. […] After an overnight incubation, purity and viability were assessed in the cultured cell populations. […]
as §2

Turning to `CC(C)C[C@@H]1NC(=O)[C@H](Cc2c[nH]cn2)NC(=O)[C@H](Cc2c[nH]c3ccccc23)NC(=O)[C@H](C)NC(=O)[C@@H](NC(=O)[C@H](CC(=O)O)NC(=O)CCOCCOCCOCCOCCOCCOCCOCCOCc2cn(CCCC[C@H](NC(=O)N[C@@H](CCC(=O)O)C(=O)O)C(=O)O)nn2)CSSC[C@@H](C(=O)N[C@H](C(=O)O)[C@@H](C)O)NC(=O)[C@H](Cc2c[nH]c3ccccc23)NC(=O)[C@H](C(C)C)NC(=O)[C@H](CC(C)C)NC(=O)[C@H](CCC(=O)O)NC(=O)CNC1=O` [Compound I-11], the “Luminescence (background substracted)” value was 165.5 and 123.5 in data set [1] (I-11 3.2 nM, IgG1 FC (20 nM)); 172 and 189 in data set [1] (I-11 3.2 nM, IgG1 FC (200 nM)); 128.5 and 86.5 in data set [1] (I-11 3.2 nM, anti-DNP (20 ug/mL)); 667.5 and 621.5 in data set [1] (I-11 16 nM, IgG1 FC (20 nM)); 1216 and 1040 in data set [1] (I-11 16 nM, IgG1 FC (200 nM)); 934.5 and 855.5 in data set [1] (I-11 16 nM, anti-DNP (20 ug/mL)). Also, the “Luminescence (background substracted)” value in data set [1] (I-11 80 nM, IgG1 FC (20 nM)) was 1251.5 and 1037.5; in data set [1] (I-11 80 nM, IgG1 FC (200 nM)), 1708 and 1823; in data set [1] (I-11 80 nM, anti-DNP (20 ug/mL)) it was 1635.5 and 1605.5; in data set [1] (I-11 400 nM, IgG1 FC (20 nM)) it was 797.5 and 679.5; in data set [1] (I-11 400 nM, IgG1 FC (200 nM)) it was 1827 and 1494; in data set [1] (I-11 400 nM, anti-DNP (20 ug/mL)), 1842.5 and 1696.5. Further, the “Luminescence (background substracted)” value in data set [1] (I-11 2000 nM, IgG1 FC (20 nM)) is 151.5 and 163.5; in data set [1] (I-11 2000 nM, IgG1 FC (200 nM)), 1372 and 1118; in data set [1] (I-11 2000 nM, anti-DNP (20 ug/mL)), 1374.5 and 1253.5. Further, in the data set with LNCap cells, the pEC50 is 8.18.
daratumumab [reference compound]: the “increase in the percentage of dead NK cells” value with CIML NK cells was 4%. Moreover, the “total increase in dead NK cells over DMSO treated control” value with non-CIML NK cells was 5.6%.

A word on the pEC50: it is the EC50 on a negative log10 scale, so that one unit is a factor of ten.
